Measured values published in the supplement of paper PMC4862054.

Key:
Settings in all cases: incubation time: 72 h
[1] = system: MDA-MB-453; assay: normalised viability (% of control), CellTiter-Blue; higher = more viable cells (about 100 = DMSO control)
Method: (§1)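 DSRT, CellTiter-Blue viability, 72 h incubation. Signal is normalised to DMSO and benzethonium chloride controls. Value is the normalised response at dose 6.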

[2] = system: CAL-51; assay: as above
Method: as §1

[3] = system: DU-4475; assay: as above
Method: as §1

[4] = system: CAL-148; assay: as above
Method: as §1

[5] = system: CAL-85-1; assay: as above
Method: as §1

[6] = system: HDQ-P1; assay: as above
Method: as §1

[7] = system: HCC1937; assay: normalised response (% of control), CellTiter-Glo; higher = more viable cells (100 = DMSO, 0 = benzethonium chloride kill control)
Method: (§2)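 DSRT, 72 h incubation, CellTox Green / CellTiter-Glo readout. Signal is normalised to DMSO and benzethonium chloride controls. Value is the normalised response at the highest dose.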

[8] = system: BT-549; assay: as above
Method: as §2

[9] = system: MDA-MB-453; assay: as above
Method: as §2

[10] = system: CAL-51; assay: as above
Method: as §2

[11] = system: MFM-223; assay: as above
Method: as §2

[12] = system: DU-4475; assay: as above
Method: as §2

[13] = system: BT-474; assay: as above
Method: as §2

[14] = system: MDA-MB-436; assay: as above
Method: as §2

[15] = system: MDA-MB-231; assay: as above
Method: as §2

[16] = system: HCC1599; assay: as above
Method: as §2

[17] = system: MDA-MB-468; assay: as above
Method: as §2

[18] = system: MCF-10A; assay: as above
Method: as §2

[19] = system: HCC1143; assay: as above
Method: as §2

[20] = system: SK-BR-3; assay: as above
Method: as §2

[21] = system: CAL-148; assay: as above
Method: as §2

[22] = system: CAL-85-1; assay: as above
Method: as §2

[23] = system: HDQ-P1; assay: as above
Method: as §2

[24] = system: Hs578T; assay: as above
Method: as §2

[25] = system: CAL-120; assay: as above
Method: as §2

[26] = system: HCC1937; assay: normalised response (% of control), CellTox Green; higher = less cell death (100 = DMSO, 0 = benzethonium chloride kill control)
How it was run: (§3)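 After 72 h with compound in 384-well plates, breast cancer cell lines seeded as 20 µl suspension were read for CellTox Green fluorescence at 485/520 nm. CellTiter-Glo luminescence was then read after 10 min at room temperature. Compound was present at 5 concentrations in 10-fold steps over a 10,000-fold range set per compound, and plates were normalised to 0.1 % DMSO (100) and a positive kill control (0). Values are normalised signals, each at a single concentration.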

[27] = system: BT-549; assay: as above
How it was run: as §3

[28] = system: MDA-MB-453; assay: as above
How it was run: as §3

[29] = system: CAL-51; assay: as above
How it was run: as §3

[30] = system: MFM-223; assay: as above
How it was run: as §3

[31] = system: DU-4475; assay: as above
How it was run: as §3

[32] = system: BT-474; assay: as above
How it was run: as §3

[33] = system: MDA-MB-436; assay: as above
How it was run: as §3

[34] = system: MDA-MB-231; assay: as above
How it was run: as §3

[35] = system: HCC1599; assay: as above
How it was run: as §3

[36] = system: MDA-MB-468; assay: as above
How it was run: as §3

[37] = system: MCF-10A; assay: as above
How it was run: as §3

[38] = system: HCC1143; assay: as above
How it was run: as §3

[39] = system: CAL-148; assay: as above
How it was run: as §3

[40] = system: CAL-85-1; assay: as above
How it was run: as §3

[41] = system: Hs578T; assay: as above
How it was run: as §3

[42] = system: CAL-120; assay: as above
How it was run: as §3

[43] = system: HDQ-P1; assay: as above
How it was run: as §3

## CS(=O)(=O)c1ccc(C(=O)Nc2ccc(Cl)c(-c3ccccn3)c2)c(Cl)c1 [Vismodegib] (300 nM)
[1]
  normalised viability: 102%
[2]
  normalised viability: 106%
[3]
  normalised viability: 102%
[4]
  normalised viability: 81.3%
[5]
  normalised viability: 95.7%
[6]
  normalised viability: 44%

## Cc1ccc(F)c(NC(=O)Nc2ccc(-c3cccc4[nH]nc(N)c34)cc2)c1 [Linifanib] (30 nM)
[1]
  normalised viability: 96.4%
[2]
  normalised viability: 107%
[3]
  normalised viability: 116%
[4]
  normalised viability: 94.1%
[5]
  normalised viability: 118%
[6]
  normalised viability: 96.2%

## N#CC[C@H](C1CCCC1)n1cc(-c2ncnc3[nH]ccc23)cn1 [Ruxolitinib] (300 nM)
[1]
  normalised viability: 78.4%
[2]
  normalised viability: 86.7%
[3]
  normalised viability: 114%
[4]
  normalised viability: 95.1%
[5]
  normalised viability: 92%
[6]
  normalised viability: 73.3%

## C[C@]1(c2nc3c(C(N)=O)cccc3[nH]2)CCCN1 [Veliparib] (300 nM)
[1]
  normalised viability: 101%
[2]
  normalised viability: 105%
[3]
  normalised viability: 89.9%
[4]
  normalised viability: 100%
[5]
  normalised viability: 85.2%
[6]
  normalised viability: 65.5%

## CC(=O)O[C@]1(C(C)=O)CC[C@H]2[C@@H]3C=C(C)C4=CC(=O)CC[C@]4(C)[C@H]3CC[C@@]21C [Megestrol acetate] (10000 nM)
[7]
  normalised response: 98%
[8]
  normalised response: 107%
[9]
  normalised response: 91.3%
[10]
  normalised response: 123%
[11]
  normalised response: 91.7%
[12]
  normalised response: 93.9%
[13]
  normalised response: 111%
[14]
  normalised response: 96%
[15]
  normalised response: 124%
[16]
  normalised response: 99.5%
[17]
  normalised response: 95.9%
[18]
  normalised response: 135%
[19]
  normalised response: 102%
[20]
  normalised response: 89%
[21]
  normalised response: 88.7%
[22]
  normalised response: 97.7%
[23]
  normalised response: 102%
[24]
  normalised response: 94.5%
[25]
  normalised response: 90%
[26]
  normalised response: 84%
[27]
  normalised response: 105%
[28]
  normalised response: 99.8%
[29]
  normalised response: 111%
[30]
  normalised response: 103%
[31]
  normalised response: 97.6%
[32]
  normalised response: 99.2%
[33]
  normalised response: 88.3%
[34]
  normalised response: 123%
[35]
  normalised response: 95.9%
[36]
  normalised response: 176%
[37]
  normalised response: 102%
[38]
  normalised response: 112%
[39]
  normalised response: 99.9%
[40]
  normalised response: 109%
[41]
  normalised response: 58.5%
[42]
  normalised response: 96.6%

## O=C(c1ccc(C(=O)N2CCC(N3CCCC3)CC2)c(Nc2ccccc2)c1)N1CCC(N2CCCC2)CC1 [UNC1215] (30000 nM)
[7]
  normalised response: 94.2%
[8]
  normalised response: 98%
[9]
  normalised response: 99.8%
[10]
  normalised response: 99.6%
[11]
  normalised response: 95.1%
[12]
  normalised response: 94.8%
[13]
  normalised response: 101%
[14]
  normalised response: 93.2%
[15]
  normalised response: 93.9%
[16]
  normalised response: 96%
[17]
  normalised response: 95%
[18]
  normalised response: 95.4%
[19]
  normalised response: 96.5%
[20]
  normalised response: 94%
[21]
  normalised response: 93.8%
[22]
  normalised response: 92.2%
[23]
  normalised response: 97.7%
[24]
  normalised response: 99.6%
[25]
  normalised response: 107%
[26]
  normalised response: 98.5%
[27]
  normalised response: 86.1%
[28]
  normalised response: 102%
[29]
  normalised response: 106%
[30]
  normalised response: 105%
[31]
  normalised response: 98.2%
[32]
  normalised response: 102%
[33]
  normalised response: 93.4%
[34]
  normalised response: 88.8%
[35]
  normalised response: 94.3%
[36]
  normalised response: 135%
[37]
  normalised response: 82.8%
[39]
  normalised response: 101%
[40]
  normalised response: 116%
[43]
  normalised response: 50.2%
[41]
  normalised response: 84.2%
[42]
  normalised response: 98.6%

## CO[C@H]1C[C@@H]2CC[C@@H](C)[C@@](O)(O2)C(=O)C(=O)N2CCCC[C@H]2C(=O)O[C@H]([C@H](C)C[C@@H]2CC[C@@H](OC(=O)C(C)(CO)CO)[C@H](OC)C2)CC(=O)[C@H](C)/C=C(\C)[C@@H](O)[C@@H](OC)C(=O)[C@H](C)C[C@H](C)/C=C/C=C/C=C/1C [Temsirolimus] (30 nM)
[1]
  normalised viability: 30.1%
[2]
  normalised viability: 41.8%
[3]
  normalised viability: 54.4%
[4]
  normalised viability: 40.4%
[5]
  normalised viability: 56.3%
[6]
  normalised viability: 58.3%

## COc1cc(Nc2ncc3c(n2)-c2ccc(Cl)cc2C(c2c(F)cccc2OC)=NC3)ccc1C(=O)O [Alisertib] (10000 nM)
[7]
  normalised response: 64.5%
[8]
  normalised response: 37.2%
[9]
  normalised response: 122%
[10]
  normalised response: 43.5%
[11]
  normalised response: 36.7%
[12]
  normalised response: 74%
[13]
  normalised response: 62%
[14]
  normalised response: 58.7%
[15]
  normalised response: 64.5%
[16]
  normalised response: 81.5%
[17]
  normalised response: 24.1%
[18]
  normalised response: 61.4%
[19]
  normalised response: 61.9%
[20]
  normalised response: 61.5%
[21]
  normalised response: 49.7%
[22]
  normalised response: 90.5%
[23]
  normalised response: 60.5%
[24]
  normalised response: 66.9%
[25]
  normalised response: 62.2%
[26]
  normalised response: 31.6%
[27]
  normalised response: 63%
[28]
  normalised response: 70.1%
[29]
  normalised response: 11.4%
[30]
  normalised response: 77.6%
[31]
  normalised response: 94%
[32]
  normalised response: 43.6%
[33]
  normalised response: 78.5%
[34]
  normalised response: 79.3%
[35]
  normalised response: 93.1%
[36]
  normalised response: -5.36%
[37]
  normalised response: -35.5%
[38]
  normalised response: 76%
[39]
  normalised response: 63.4%
[40]
  normalised response: 91.2%
[43]
  normalised response: 94.7%
[41]
  normalised response: 114%
[42]
  normalised response: 96.5%

## Cc1c2oc3c(C)ccc(C(=O)N[C@@H]4C(=O)N[C@H](C(C)C)C(=O)N5CCC[C@H]5C(=O)N(C)CC(=O)N(C)[C@@H](C(C)C)C(=O)O[C@@H]4C)c3nc-2c(C(=O)N[C@@H]2C(=O)N[C@H](C(C)C)C(=O)N3CCC[C@H]3C(=O)N(C)CC(=O)N(C)[C@@H](C(C)C)C(=O)O[C@@H]2C)c(N)c1=O [Dactinomycin] (30 nM)
[1]
  normalised viability: 7.48%
[2]
  normalised viability: 4.91%
[3]
  normalised viability: 0%
[4]
  normalised viability: 1.36%
[5]
  normalised viability: 4.36%
[6]
  normalised viability: 16.6%

## CCN1CCN(c2ccc(Nc3cc(N(C)C(=O)Nc4c(Cl)c(OC)cc(OC)c4Cl)ncn3)cc2)CC1 [NVP-BGJ398] (1000 nM)
[7]
  normalised response: 95.7%
[8]
  normalised response: 75.9%
[9]
  normalised response: 105%
[10]
  normalised response: 128%
[11]
  normalised response: 50.3%
[12]
  normalised response: 100%
[13]
  normalised response: 91.3%
[14]
  normalised response: 92.7%
[15]
  normalised response: 96.2%
[16]
  normalised response: 98.7%
[17]
  normalised response: 97.2%
[18]
  normalised response: 101%
[19]
  normalised response: 93.6%
[20]
  normalised response: 97.7%
[21]
  normalised response: 96.5%
[22]
  normalised response: 101%
[23]
  normalised response: 99.8%
[24]
  normalised response: 86.2%
[25]
  normalised response: 71.1%
[26]
  normalised response: 52.5%
[27]
  normalised response: 84.6%
[28]
  normalised response: 81.6%
[29]
  normalised response: 105%
[30]
  normalised response: 94.1%
[31]
  normalised response: 97.7%
[32]
  normalised response: 102%
[33]
  normalised response: 102%
[35]
  normalised response: 100%
[36]
  normalised response: 71.5%
[37]
  normalised response: 73.2%
[38]
  normalised response: 105%
[39]
  normalised response: 98.1%
[40]
  normalised response: 119%
[43]
  normalised response: 101%
[41]
  normalised response: 115%
[42]
  normalised response: 89.3%
